Measurements reported in ChEMBL document CHEMBL1201862, “PubChem BioAssay data set” (2004).
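In this assay, cells in 96-well plates receive the compound at five concentrations for 48 hours. Endpoints are linearly interpolated between the surrounding concentrations. GI50 is the concentration that inhibits growth by half.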 Activity calls are given as the source filed them. Cut-off read from the data, not from the text of the source: active = GI50 up to about 1.1 µM and inactive = higher.

Tests used:
Experiment in all cases: NCI anticancer screen, dose series, 48 h
HT-29 = system: HT-29
CCRF-CEM = system: CCRF-CEM
RXF 393 = system: RXF 393
TK-10 = system: TK-10
MCF7 = system: MCF7
HCT-116 = system: HCT-116
OVCAR-3 = system: OVCAR-3
DU-145 = system: DU-145
M14 = system: M14
SK-MEL-2 = system: SK-MEL-2
RPMI-8226 = system: RPMI-8226
MDA-MB-435 = system: MDA-MB-435
BT-549 = system: BT-549
PC-3 = system: PC-3
K562 = system: K562
SN12C = system: SN12C
ACHN = system: ACHN
Hs-578T = system: Hs-578T
KM12 = system: KM12
SK-MEL-28 = system: SK-MEL-28

Row | Structure (SMILES) | GI50 (HT-29) | GI50 (CCRF-CEM) | GI50 (RXF 393) | GI50 (TK-10) | GI50 (MCF7) | GI50 (HCT-116) | GI50 (OVCAR-3) | GI50 (DU-145) | GI50 (M14) | GI50 (SK-MEL-2) | GI50 (RPMI-8226) | GI50 (MDA-MB-435) | GI50 (BT-549) | GI50 (PC-3) | GI50 (K562) | GI50 (SN12C) | GI50 (ACHN) | GI50 (Hs-578T) | GI50 (KM12) | GI50 (SK-MEL-28)
1 | O=C1NN=C2C=C(c3ccc(Cl)cc3)CC(c3cccc(Cl)c3)C12 (centres undefined) | 21.9 µM (inactive) | 23.6 µM (inactive) | 14.5 µM (inactive) | 20.1 µM (inactive) | 17.3 µM (inactive) | 18.5 µM (inactive) | 29.5 µM (inactive) | 64.3 µM (inactive) | 38.3 µM (inactive) | 19.7 µM (inactive) | 20.5 µM (inactive) | 19.1 µM (inactive) | 58.2 µM (inactive) | 31.8 µM (inactive) | 17.1 µM (inactive) | 22.5 µM (inactive) | 19.9 µM (inactive) | 19.9 µM (inactive) | 28.6 µM (inactive) | 
2 | COc1cc(NC(C)=O)ccc1C(=O)N/N=C/c1ccco1 | > 100 µM (inactive) | 80.2 µM (inactive) | > 100 µM (inactive) |  | 52.2 µM (inactive) | > 100 µM (inactive) | > 100 µM (inactive) | > 100 µM (inactive) | > 100 µM (inactive) | > 100 µM (inactive) | 77.6 µM (inactive) | > 100 µM (inactive) | > 100 µM (inactive) | > 100 µM (inactive) | > 100 µM (inactive) | > 100 µM (inactive) | 63 µM (inactive) | > 100 µM (inactive) | > 100 µM (inactive) | > 100 µM (inactive)
3 | O=[N+]([O-])c1cccc(-c2ncnc(-c3cccc([N+](=O)[O-])c3)n2)c1 | > 100 µM (inactive) |  | 18.5 µM (inactive) | 44.5 µM (inactive) | > 100 µM (inactive) | > 100 µM (inactive) | 35.9 µM (inactive) | > 100 µM (inactive) | > 100 µM (inactive) | 51.5 µM (inactive) | > 100 µM (inactive) | > 100 µM (inactive) | 32.2 µM (inactive) | > 100 µM (inactive) | 48.6 µM (inactive) | > 100 µM (inactive) |  | 51.2 µM (inactive) | > 100 µM (inactive) | > 100 µM (inactive)
4 | COc1ccc(N2C(=O)C(C#N)=C(SC)C(C#N)C2=O)cc1 (centres undefined) | > 100 µM (inactive) | > 100 µM (inactive) | > 100 µM (inactive) | > 100 µM (inactive) | > 100 µM (inactive) | > 100 µM (inactive) |  |  | > 100 µM (inactive) | > 100 µM (inactive) |  | > 100 µM (inactive) | > 100 µM (inactive) | > 100 µM (inactive) | > 100 µM (inactive) | > 100 µM (inactive) | > 100 µM (inactive) | 22.8 µM (inactive) | > 100 µM (inactive) | 
5 | O=C1c2ccccc2C(=O)c2c(NCCCN3CCOCC3)ccc(NCCCN3CCOCC3)c21 | 1.14 µM (inactive) | 2.59 µM (inactive) | 8.36 µM (inactive) | 12.9 µM (inactive) | 5.9 µM (inactive) | 1.23 µM (inactive) | 4.07 µM (inactive) | < 0.01 µM (active) | 3.1 µM (inactive) | 8.24 µM (inactive) | 2 µM (inactive) |  | 6.62 µM (inactive) | 2.61 µM (inactive) | 2.16 µM (inactive) | 2.18 µM (inactive) | 2.07 µM (inactive) | 5.45 µM (inactive) | 3.12 µM (inactive) | 5.79 µM (inactive)
6 | Cc1cc(NS(=O)(=O)c2ccc(NO)cc2)no1 | 41.3 µM (inactive) | 8.65 µM (inactive) | > 100 µM (inactive) | > 100 µM (inactive) | 22 µM (inactive) | 28.5 µM (inactive) | > 100 µM (inactive) | > 100 µM (inactive) | 70.6 µM (inactive) | > 100 µM (inactive) |  | 19.5 µM (inactive) | > 100 µM (inactive) | > 100 µM (inactive) | 14.7 µM (inactive) | 19.5 µM (inactive) | > 100 µM (inactive) | > 100 µM (inactive) | 63.4 µM (inactive) | > 100 µM (inactive)
7 | C=C(CC[C@@H](C(=O)O)[C@H]1[C@H](O)C[C@@]2(C)C3=CC[C@@H](C(=C)C)[C@](C)(CCC(=O)O)C3=CC[C@]12C)C(C)C [PORICOIC ACID A] | 17.6 µM (inactive) | 29.6 µM (inactive) | 17.2 µM (inactive) | 17.8 µM (inactive) | 17.1 µM (inactive) | 16.4 µM (inactive) | 19.1 µM (inactive) | 20.6 µM (inactive) | 17.9 µM (inactive) | 18.5 µM (inactive) |  | 18.8 µM (inactive) | 18.5 µM (inactive) | 18.7 µM (inactive) | 26.5 µM (inactive) | 16.7 µM (inactive) | 17.6 µM (inactive) | 22.6 µM (inactive) | 18.3 µM (inactive) | 19.4 µM (inactive)
8 | Cc1ccc(S(=O)(=O)N2CCN(S(=O)(=O)c3ccc(C)cc3)CCN(S(=O)(=O)c3ccc(C)cc3)Cc3cc(C#N)c(C#N)cc3CN(S(=O)(=O)c3ccc(C)cc3)CC2)cc1 | > 100 µM (inactive) | > 100 µM (inactive) | > 100 µM (inactive) | 86.7 µM (inactive) | > 100 µM (inactive) | > 100 µM (inactive) | > 100 µM (inactive) | > 100 µM (inactive) | 25.8 µM (inactive) |  | > 100 µM (inactive) | > 100 µM (inactive) | > 100 µM (inactive) | 39.4 µM (inactive) | > 100 µM (inactive) | > 100 µM (inactive) | > 100 µM (inactive) | > 100 µM (inactive) | > 100 µM (inactive) | > 100 µM (inactive)
9 | C=CCOCn1ccc(NC(=O)c2ccccc2)nc1=O | > 100 µM (inactive) | > 100 µM (inactive) |  | > 100 µM (inactive) | > 100 µM (inactive) | > 100 µM (inactive) |  | > 100 µM (inactive) | > 100 µM (inactive) |  | > 100 µM (inactive) | > 100 µM (inactive) | > 100 µM (inactive) | > 100 µM (inactive) | > 100 µM (inactive) | > 100 µM (inactive) | > 100 µM (inactive) | > 100 µM (inactive) | > 100 µM (inactive) | > 100 µM (inactive)
10 | CC1(C)[C@@H]2CC[C@]1(C)[C@H](OC(=O)CSC#N)C2 | > 100 µM (inactive) |  | > 100 µM (inactive) | > 100 µM (inactive) | 65.9 µM (inactive) | 40.4 µM (inactive) | 30.8 µM (inactive) | > 100 µM (inactive) | 47.1 µM (inactive) | > 100 µM (inactive) |  | 46.2 µM (inactive) | > 100 µM (inactive) | > 100 µM (inactive) |  | > 100 µM (inactive) | > 100 µM (inactive) | > 100 µM (inactive) | > 100 µM (inactive) | > 100 µM (inactive)
11 | O=C1CCCn2c(nc3ccccc32)N1 | > 100 µM (inactive) | > 100 µM (inactive) | > 100 µM (inactive) | > 100 µM (inactive) | > 100 µM (inactive) | > 100 µM (inactive) | > 100 µM (inactive) |  | > 100 µM (inactive) | > 100 µM (inactive) | > 100 µM (inactive) | > 100 µM (inactive) | > 100 µM (inactive) | > 100 µM (inactive) | > 100 µM (inactive) |  | > 100 µM (inactive) | > 100 µM (inactive) | > 100 µM (inactive) | 
12 | CCOC(=O)C1=COC(C)(c2ccccc2)CC1=O (centres undefined) | > 100 µM (inactive) |  | 63.1 µM (inactive) | > 100 µM (inactive) | > 100 µM (inactive) | > 100 µM (inactive) | > 100 µM (inactive) | > 100 µM (inactive) | > 100 µM (inactive) | > 100 µM (inactive) | > 100 µM (inactive) | > 100 µM (inactive) | > 100 µM (inactive) | > 100 µM (inactive) | > 100 µM (inactive) | > 100 µM (inactive) | > 100 µM (inactive) | 88.9 µM (inactive) | > 100 µM (inactive) | > 100 µM (inactive)
13 | O=C(CCN1CCOCC1)c1ccc(Oc2ccc(F)cc2)cc1 | 18.7 µM (inactive) | 30.8 µM (inactive) |  | 17.9 µM (inactive) | 18.7 µM (inactive) | 22.5 µM (inactive) | 22.3 µM (inactive) | 36 µM (inactive) | 18.4 µM (inactive) | 23.6 µM (inactive) |  | 37.6 µM (inactive) | 18.2 µM (inactive) | 19.2 µM (inactive) | 23.6 µM (inactive) | 30.9 µM (inactive) | 17.9 µM (inactive) | 19.9 µM (inactive) | 17.4 µM (inactive) | 28 µM (inactive)
14 | Cn1c(=O)c2c(ncn2CCSS(=O)(=O)O)n(C)c1=O | 99.5 µM (inactive) |  | 79.1 µM (inactive) | > 100 µM (inactive) | > 100 µM (inactive) | > 100 µM (inactive) | > 100 µM (inactive) | > 100 µM (inactive) | 72.3 µM (inactive) | 55.3 µM (inactive) | > 100 µM (inactive) | > 100 µM (inactive) | > 100 µM (inactive) | > 100 µM (inactive) | > 100 µM (inactive) | > 100 µM (inactive) | > 100 µM (inactive) | 74.5 µM (inactive) | > 100 µM (inactive) | > 100 µM (inactive)
15 | Cn1cc(NC(=O)Nc2cc(C(=O)Nc3cc(C(=O)Nc4ccc5cc(S(=O)(=O)O)cc(S(=O)(=O)O)c5c4)n(C)c3)n(C)c2)cc1C(=O)Nc1cc(C(=O)Nc2ccc3cc(S(=O)(=O)O)cc(S(=O)(=O)O)c3c2)n(C)c1 | > 100 µM (inactive) | > 100 µM (inactive) | > 100 µM (inactive) | 83 µM (inactive) | > 100 µM (inactive) | > 100 µM (inactive) | 84.3 µM (inactive) | > 100 µM (inactive) | 91.4 µM (inactive) |  | > 100 µM (inactive) | > 100 µM (inactive) | > 100 µM (inactive) | > 100 µM (inactive) | > 100 µM (inactive) | > 100 µM (inactive) | > 100 µM (inactive) | > 100 µM (inactive) | > 100 µM (inactive) | > 100 µM (inactive)
